# Results taken from patent publication US20160002204A1 (Board of Regents, The University of Texas System, priority 2014, published 2016).
# Assays:
# [1] = molecular target: T1, GLS1 (purified recombinant human GAC) (Homo sapiens, UniProt O94925); test: GLS1 enzymatic activity assay (dual-coupled, Amplex UltraRed/resorufin); type: biochemical
# T1 sequence (O94925 55-598 isoform O94925-3 limits assumed): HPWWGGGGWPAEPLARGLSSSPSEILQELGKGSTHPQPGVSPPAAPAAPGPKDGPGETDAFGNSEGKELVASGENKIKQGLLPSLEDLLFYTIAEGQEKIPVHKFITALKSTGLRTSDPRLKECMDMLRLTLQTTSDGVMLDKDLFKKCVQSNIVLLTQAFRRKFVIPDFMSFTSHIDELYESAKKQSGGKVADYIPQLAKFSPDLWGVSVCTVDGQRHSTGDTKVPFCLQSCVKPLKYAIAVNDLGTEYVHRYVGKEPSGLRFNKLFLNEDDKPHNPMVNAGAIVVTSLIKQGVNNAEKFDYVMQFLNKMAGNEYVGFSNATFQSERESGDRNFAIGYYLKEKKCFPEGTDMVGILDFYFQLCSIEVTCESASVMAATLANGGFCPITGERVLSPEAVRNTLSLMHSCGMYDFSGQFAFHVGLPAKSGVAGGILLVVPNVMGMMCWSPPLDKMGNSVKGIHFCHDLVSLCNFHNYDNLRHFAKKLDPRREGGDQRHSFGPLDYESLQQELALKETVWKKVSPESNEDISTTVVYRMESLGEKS
# Outline: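 GAC activity measured by coupling glutamate to glutamate oxidase and HRP, generating resorufin from Amplex UltraRed. Enzyme (2 nM) preincubated with 50 mM potassium phosphate 10 min at room temperature, then inhibitor 10 min; 1 mM glutamine substrate, 1% DMSO. Fluorescence 530/590 nm, kinetic or 20-min endpoint; IC50 from four-parameter logistic fit.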
# A549 cells = test: A549 proliferation (viability) assay, Cell Titer Fluor, 72 hours; type: cell-based; details: Homo sapiens
# Outline: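 A549 cells in RPMI 1640 with 10% dialyzed FBS were seeded at 1000 cells/well, grown 24 h, then exposed to compound (0.5% DMSO final) for 72 h at 37 °C, 5% CO2. Viability was read by Cell Titer Fluor fluorescence; EC50 from four-parameter logistic fit.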
IC50 [1] [nM],EC50 (A549 cells) [µM],SMILES
< 100,0.5 to 5,"O=C(Cc1cccc(OC(F)(F)F)c1)Nc1ccn(CCCCn2cc(C(=O)NCc3cccnc3)nn2)c(=O)c1 [Example 69, 1-[4-(2-oxo-4-{2-[3-(trifluoromethoxy)phenyl]acetamido}-1,2-dihydropyridin-1-yl)butyl]-N-(pyridin-3-ylmethyl)-1H-1,2,3-triazole-4-carboxamide]"
< 100,0.5 to 5,"Cc1ccc(CNC(=O)c2cn(CCCCn3ccc(NC(=O)Cc4cccc(OC(F)(F)F)c4)cc3=O)nn2)cn1 [Example 70, N-[(6-methylpyridin-3-yl)methyl]-1-[4-(2-oxo-4-{2-[3-(trifluoromethoxy)phenyl]acetamido}-1,2-dihydropyridin-1-yl)butyl]-1H-1,2,3-triazole-4-carboxamide]"
500 to 5000,> 5,"O=C(Cc1ccccc1)Nc1ccn(CCCCCn2ccc(NC(=O)Cc3ccccc3)nc2=O)c(=O)n1 [Example 71, N-(2-oxo-1-{5-[2-oxo-4-(2-phenyl-acetamido)-1,2-dihydropyrimidin-1-yl]pentyl}-1,2-dihydropyrimidin-4-yl)-2-phenylacetamide]"
500 to 5000,> 5,"Nc1nnc(CCCCn2ccc(NC(=O)Cc3ccccc3)nc2=O)s1 [Example 72, N-{1-[4-(5-amino-1,3,4-thiadiazol-2-yl)butyl]-2-oxo-1,2-dihydropyrimidin-4-yl}-2-phenylacetamide]"
< 100,0.5 to 5,"O=C(Cc1ccccc1)Nc1ccn(CCCCc2nnc(NC(=O)Cc3ccccc3)s2)c(=O)n1 [Example 73, N-(2-oxo-1-{4-[5-(2-phenylacetamido)-1,3,4-thiadiazol-2-yl]butyl}-1,2-dihydropyrimidin-4-yl)-2-phenylacetamide]"
500 to 5000,> 5,"O=C(Cc1ccccc1)Nc1ccn(CCCCCc2nnc(NC(=O)Cc3ccccc3)s2)c(=O)n1 [Example 74, N-(2-oxo-1-{5-[5-(2-phenylacetamido)-1,3,4-thiadiazol-2-yl]pentyl}-1,2-dihydropyrimidin-4-yl)-2-phenylacetamide]"
< 100,< 0.1,"O=C(Cc1cccc(OC(F)(F)F)c1)Nc1ccc(CCCCn2ccc(NC(=O)Cc3ccccc3)nc2=O)nn1 [Example 75, N-{2-oxo-1-[4-(6-{2-[3-(trifluoro-methoxy)phenyl]acetamido}pyridazin-3-yl)butyl]-1,2-dihydropyrimidin-4-yl}-2-phenylacetamide]"
< 100,0.1 to 0.5,"CC(=O)Nc1ccn(CCCCc2ccc(NC(=O)Cc3cccc(OC(F)(F)F)c3)nn2)c(=O)n1 [Example 76, N-{6-[4-(4-acetamido-2-oxo-1,2-dihydropyrimidin-1-yl)butyl]pyridazin-3-yl}-2-[3-(trifluoromethoxy)phenyl]acetamide]"
500 to 5000,> 5,"Nc1ccn(CCCCc2ccc(NC(=O)Cc3cccc(OC(F)(F)F)c3)nn2)c(=O)n1 [Example 77, N-{6-[4-(4-amino-2-oxo-1,2-dihydropyrimidin-1-yl)butyl]pyridazin-3-yl}-2-[3-(trifluoromethoxy)phenyl]acetamide]"
< 100,< 0.1,"O=C(Cc1cccc(OC(F)(F)F)c1)Nc1ccc(CCCCn2ccc(NC(=O)[C@@H](O)c3ccccc3)nc2=O)nn1 [Example 78, (2S)-2-hydroxy-N-{2-oxo-1-[4-(6-{2-[3-(trifluoro-methoxy)phenyl]acetamido}pyridazin-3-yl)butyl]-1,2-dihydropyrimidin-4-yl}-2-phenylacetamide]"
500 to 5000,0.5 to 5,"Nc1nnc(CCCCn2ccc(NC(=O)Cc3cccc(OC(F)(F)F)c3)nc2=O)s1 [Example 79, N-{1-[4-(5-amino-1,3,4-thiadiazol-2-yl)butyl]-2-oxo-1,2-dihydropyrimidin-4-yl}-2-[3-(trifluoromethoxy)phenyl]acetamide]"
< 100,0.1 to 0.5,"O=C(Cc1cccc(OC(F)(F)F)c1)Nc1ccn(CCCCc2nnc(NC(=O)[C@@H](O)c3ccccc3)s2)c(=O)n1 [Example 80, (2S)-2-hydroxy-N-{5-[4-(2-oxo-4-{2-[3-(trifluoro-methoxy)phenyl]acetamido}-1,2-dihydropyrimidin-1-yl)butyl]-1,3,4-thiadiazol-2-yl}-2-phenylacetamide]"
< 100,0.5 to 5,"O=C(Cc1cccc(OC(F)(F)F)c1)Nc1ccn(CCCCc2nnc(NC(=O)Cc3cccnc3)s2)c(=O)n1 [Example 81, N-[2-oxo-1-(4-{5-[2-(pyridin-3-yl)acetamido]-1,3,4-thiadiazol-2-yl]butyl)-1,2-dihydropyrimidin-4-yl]-2-[3-(trifluoromethoxy)phenyl]acetamide]"
< 100,> 5,"O=C(Cc1cccnc1)Nc1ccn(CCCCc2nnc(NC(=O)Cc3ccccc3)s2)c(=O)n1 [Example 82, N-[5-(4-{2-oxo-4-[2-(pyridin-3-yl)acetamido]-1,2-dihydropyrimidin-1-yl}butyl)-1,3,4-thiadiazol-2-yl]-2-phenylacetamide]"
< 100,> 5,"O=C(Cc1ccccc1)Nc1nnc(CCCCn2ccc(NC(=O)[C@@H](O)c3ccccc3)nc2=O)s1 [Example 83, (2S)-2-hydroxy-N-(2-oxo-1-{4-[5-(2-phenylacetamido)-1,3,4-thiadiazol-2-yl]butyl}-1,2-dihydropyrimidin-4-yl)-2-phenylacetamide]"
< 100,> 5,"O=C(Cc1ccccc1)Nc1nnc(CCCCn2ccc(NC(=O)[C@H](O)c3ccccc3)nc2=O)s1 [Example 84, (2R)-2-hydroxy-N-(2-oxo-1-{4-[5-(2-phenylacetamido)-1,3,4-thiadiazol-2-yl]butyl}-1,2-dihydropyrimidin-4-yl)-2-phenylacetamide]"
< 100,0.1 to 0.5,"CC(C)(C)OC(=O)NCc1cccc(CC(=O)Nc2ccn(CCCCc3nnc(NC(=O)Cc4ccccc4)s3)c(=O)n2)c1 [Example 85, tert-butyl N-[(3-{[(2-oxo-1-{4-[5-(2-phenylacetamido)-1,3,4-thiadiazol-2-yl]butyl}-1,2-dihydropyrimidin-4-yl)carbamoyl]methyl}phenyl)methyl] carbamate]"
500 to 5000,> 5,"CCNC(=O)Nc1ccn(CCCCc2ccc(NC(=O)Cc3ccccc3)nn2)c(=O)n1 [Example 86, N-[6-(4-{4-[(ethylcarbamoyl)amino]-2-oxo-1,2-dihydropyrimidin-1-yl}butyl)pyridazin-3-yl]-2-phenylacetamide]"
500 to 5000,> 5,"CC(C)NC(=O)Nc1ccn(CCCCc2ccc(NC(=O)Cc3ccccc3)nn2)c(=O)n1 [Example 87, N-{6-[4-(2-oxo-4-{[(propan-2-yl)carbamoyl]amino}-1,2-dihydropyrimidin-1-yl)butyl]pyridazin-3-yl}-2-phenylacetamide]"
100 to 500,0.5 to 5,"O=C(Cc1ccccc1)Nc1ccc(CCCCn2ccc(NC(=O)NC3CCCCC3)nc2=O)nn1 [Example 88, N-[6-(4-{4-[(cyclohexylcarbamoyl)amino]-2-oxo-1,2-dihydropyrimidin-1-yl}butyl)pyridazin-3-yl]-2-phenylacetamide]"
100 to 500,> 5,"C[C@@H](NC(=O)Nc1ccn(CCCCc2ccc(NC(=O)Cc3ccccc3)nn2)c(=O)n1)c1ccccc1 [Example 89, N-(6-{4-[2-oxo-4-({[(1R)-1-phenylethyl]carbamoyl}amino)-1,2-dihydropyrimidin-1-yl]butyl}pyridazin-3-yl)-2-phenylacetamide]"
100 to 500,> 5,"C[C@H](NC(=O)Nc1ccn(CCCCc2ccc(NC(=O)Cc3ccccc3)nn2)c(=O)n1)c1ccccc1 [Example 90, N-(6-{4-[2-oxo-4-({[(1S)-1-phenylethyl]carbamoyl}amino)-1,2-dihydropyrimidin-1-yl]butyl}pyridazin-3-yl)-2-phenylacetamide]"
< 100,0.1 to 0.5,"O=C(Cc1cccc(OC(F)(F)F)c1)Nc1ccn(CCCCn2ccc(NC(=O)Cc3cccc(OC(F)(F)F)c3)nc2=O)c(=O)n1 [Example 91, N-{2-oxo-1-[4-(2-oxo-4-{2-[3-(trifluoromethoxy)phenyl]acetamido}-1,2-dihydropyrimidin-1-yl)butyl]-1,2-dihydropyrimidin-4-yl}-2-[3-(trifluoromethoxy)phenyl]acetamide]"
< 100,0.5 to 5,"CC(=O)Nc1ccn(CCCCc2ccc(NC(=O)Cc3ccccc3)nn2)c(=O)n1 [Example 92, N-{6-[4-(4-acetamido-2-oxo-1,2-dihydropyrimidin-1-yl)butyl]pyridazin-3-yl}-2-phenylacetamide]"
100 to 500,0.5 to 5,"COC(=O)Nc1ccn(CCCCc2ccc(NC(=O)Cc3ccccc3)nn2)c(=O)n1 [Example 93, methyl N-(2-oxo-1-{4-[6-(2-phenylacetamido)pyridazin-3-yl]butyl}-1,2-dihydropyrimidin-4-yl)carbamate]"
